Reference: BindingDB's records for doi:10.1007/pl00005326 (Schering-Plough Research Institute, 1999)

Molecular target: T1, Adenosine receptor A3 (Homo sapiens, UniProt P0DMS8)
T1 sequence (P0DMS8 whole entry): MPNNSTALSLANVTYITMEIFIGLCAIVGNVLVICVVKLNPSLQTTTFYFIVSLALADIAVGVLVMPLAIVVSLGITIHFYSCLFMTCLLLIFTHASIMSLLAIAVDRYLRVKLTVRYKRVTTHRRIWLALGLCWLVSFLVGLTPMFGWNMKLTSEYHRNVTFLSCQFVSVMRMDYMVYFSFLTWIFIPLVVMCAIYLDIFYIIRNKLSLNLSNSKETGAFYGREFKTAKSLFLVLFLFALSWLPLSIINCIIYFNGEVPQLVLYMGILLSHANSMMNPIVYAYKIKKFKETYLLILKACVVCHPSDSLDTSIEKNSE

## Nc1nc(NCCc2ccc(O)cc2)nc2nc(-c3ccco3)nn12
  Ki: > 10 µM

## Nc1nc2ccc(Cl)cc2c2nc(-c3ccco3)nn12
  Ki: 0.095 µM

## Nc1nc2c(cnn2CCc2ccccc2)c2nc(-c3ccco3)nn12
  Ki: > 10 µM
